27 compounds from patent US9777000B2, “Pyrazole derivative” (MOCHIDA PHARMACEUTICAL CO., LTD., priority 2013, dated 2017) can be followed below.

The IC50 is the concentration that gives 50% inhibition. Read a low IC50 as greater potency.

Chain of human PDE10 (Q9Y233 whole entry): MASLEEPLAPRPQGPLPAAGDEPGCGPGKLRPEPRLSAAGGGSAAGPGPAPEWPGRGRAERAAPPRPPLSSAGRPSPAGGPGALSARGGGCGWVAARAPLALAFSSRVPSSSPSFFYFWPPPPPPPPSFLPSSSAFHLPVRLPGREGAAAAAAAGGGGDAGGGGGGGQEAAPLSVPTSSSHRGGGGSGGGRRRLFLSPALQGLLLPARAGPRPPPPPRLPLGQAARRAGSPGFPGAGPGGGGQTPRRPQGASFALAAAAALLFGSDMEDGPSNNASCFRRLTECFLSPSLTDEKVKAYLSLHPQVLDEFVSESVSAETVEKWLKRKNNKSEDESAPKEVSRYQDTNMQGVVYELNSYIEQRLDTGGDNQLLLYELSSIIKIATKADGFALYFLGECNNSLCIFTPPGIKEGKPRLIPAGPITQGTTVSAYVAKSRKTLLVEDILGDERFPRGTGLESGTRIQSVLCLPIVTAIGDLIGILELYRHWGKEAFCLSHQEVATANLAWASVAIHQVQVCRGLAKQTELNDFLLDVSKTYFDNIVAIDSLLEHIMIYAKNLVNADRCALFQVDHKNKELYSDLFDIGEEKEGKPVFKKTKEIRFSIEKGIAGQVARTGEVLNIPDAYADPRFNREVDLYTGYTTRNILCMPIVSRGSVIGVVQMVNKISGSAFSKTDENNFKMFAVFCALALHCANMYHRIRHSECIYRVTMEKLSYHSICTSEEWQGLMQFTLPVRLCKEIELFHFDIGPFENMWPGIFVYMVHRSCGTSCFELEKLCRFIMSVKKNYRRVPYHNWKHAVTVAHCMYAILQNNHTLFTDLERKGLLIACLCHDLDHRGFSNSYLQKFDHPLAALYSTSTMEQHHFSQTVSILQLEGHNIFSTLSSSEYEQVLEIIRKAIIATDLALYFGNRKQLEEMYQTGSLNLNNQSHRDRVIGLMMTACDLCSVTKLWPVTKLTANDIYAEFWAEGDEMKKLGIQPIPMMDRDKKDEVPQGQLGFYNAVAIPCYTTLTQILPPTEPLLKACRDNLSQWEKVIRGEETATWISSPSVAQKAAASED

In this experiment the target is human PDE10 (Homo sapiens (Human), UniProt Q9Y233). The experiment can be described thus: Evaluation of enzyme inhibitory activity: human PDE10 inhibitory effect (IMAP TR-FRET). It is filed as biochemical. Particulars: cAMP substrate. Here is the method:
(Evaluation of Enzyme Inhibitory Activity: Human PDE10 Inhibitory Effect)
IMAP TR-FRET Phosphodiersterase Evaluation Assay Kit (Molecular Device) was used for the measurement. Ten μL of a diluted test compound having each concentration and 5 μL of the enzyme PDE10 (BPA Bioscience) that had been diluted to 2 ng/mL with 1×IMAP Reaction Buffer (prepared with 5×included with the kit, 10 mM Tris-HCl, pH=7.2, 10 mM MgCl2, 0.05% NaN3, and 0.1% BSA) containing 0.1% BSA were added to a 384-well plate (Corning). The obtained mixture was then pre-incubated at room temperature for 5 minutes. Thereafter, 5 μL of cAMP substrate solution which was included with the kit and diluted to 400 nM with 1×IMAP Reaction Buffer containing 0.1% BSA, was added to the reaction solution, and the obtained mixture was reacted at room temperature for 60 minutes. Thereafter, 60 μL of an IMAP TR-FRET Binding solution included with the kit was further added to the reaction solution, and the obtained mixture was then left for 3 hours or more. Subsequently, using ARVO SX (PerkinElmer), the fluorescent intensity of Terbium (Emission=490 nm) and TR-FRET (Emission=520 nm) in the reaction solution were measured at an excitation wavelength of 340 nm, so as to calculate the amount of the generated 5′-AMP. The count of a well to which a solvent had been added instead of the test compound was set at 0%, and the count of a well to which the enzyme PDE10 had not been added was set at 100%. Thus, the inhibitory activity of each test compound was calculated.
The PDE10 inhibitory activity of the test compound was indicated with an IC50 value. […] The test compounds are shown in Table 3 (Table 3-1 and Table 3-2).
(TR-FRET usually uses a lanthanide donor and a delayed reading to cut background.)
For `Cc1cccc(-c2cnn(C)c2C(=O)Nc2ccn3nc(N4CCCC4)nc3c2)n1` [Example 4.31, 1-methyl-4-(6-methylpyridin-2-yl)-N-(2-(pyrrolidin-1-yl)-[1,2,4]triazolo[1,5-a]pyridin-7-yl)-1H-pyrazole-5-carboxamide], the IC50 is below 5 nM.

Consider `Cc1sc(-c2cnn(C)c2C(=O)Nc2ccn3nc(N4CCCC4)nc3c2)nc1C(F)F` [Example 4.33, 4-(4-(difluoromethyl)-5-methylthiazol-2-yl)-1-methyl-N-(2-(pyrrolidin-1-yl)-[1,2,4]triazolo[1,5-a]pyridin-7-yl)-1H-pyrazole-5-carboxamide], for which the 50% inhibitory concentration (IC50) is below 5 nM.

`Cn1ncc(-c2cccc(C(F)(F)F)n2)c1C(=O)Nc1ccn2nc(N3CC[C@H](F)C3)nc2c1` [Example 4.16, (S)-N-(2-(3-fluoropyrrolidin-1-yl)-[1,2,4]triazolo[1,5-a]pyridin-7-yl)-1-methyl-4-(6-(trifluoromethyl)pyridin-2-yl)-1H-pyrazole-5-carboxamide] registered an IC50 below 5 nM.

As for `Cn1ncc(-c2nc(C(F)(F)F)cs2)c1C(=O)Nc1ccn2nc(N3CC[C@@H](F)C3)nc2c1` [Example 4.13, (R)-N-(2-(3-fluoropyrrolidin-1-yl)-[1,2,4]triazolo[1,5-a]pyridin-7-yl)-1-methyl-4-(4-(trifluoromethyl)thiazol-2-yl)-1H-pyrazole-5-carboxamide], the IC50 was below 5 nM.

Consider `Cc1nc(-c2cnn(C)c2C(=O)NC2CCn3nc(N4CCCC4)nc3C2)sc1C` (stereo not drawn) [Example 5.45, 4-(4,5-dimethylthiazol-2-yl)-1-methyl-N-(2-(pyrrolidin-1-yl)-5,6,7,8-tetrahydro-[1,2,4]triazolo[1,5-a]pyridin-7-yl)-1H-pyrazole-5-carboxamide], for which the IC50 is below 5 nM.

In turn, `Cc1sc(-c2cnn(C)c2C(=O)Nc2ccn3nc(N4CCC[C@@H]4C)nc3c2)nc1C(F)F` [Example 4.9, (S)-4-(4-(difluoromethyl)-5-methylthiazol-2-yl)-1-methyl-N-(2-(2-methylpyrrolidin-1-yl)-[1,2,4]triazolo[1,5-a]pyridin-7-yl)-1H-pyrazole-5-carboxamide] had an IC50 below 5 nM.

In turn, `Cc1cccc(-c2cnn(C)c2C(=O)Nc2ccn3nc(N4CC[C@H](F)C4)nc3c2)n1` [Example 4.21, (S)-N-(2-(3-fluoropyrrolidin-1-yl)-[1,2,4]triazolo[1,5-a]pyridin-7-yl)-1-methyl-4-(6-methylpyridin-2-yl)-1H-pyrazole-5-carboxamide] came in with an IC50 below 5 nM.

As for `COc1cncnc1-c1cnn(C)c1C(=O)Nc1cc2nc(-c3ccccc3)nn2cc1F` [Example 3.34, N-(6-fluoro-2-phenyl-[1,2,4]triazolo[1,5-a]pyridin-7-yl)-4-(5-methoxypyrimidin-4-yl)-1-methyl-1H-pyrazole-5-carboxamide], the IC50 is below 5 nM.

Compound `Cc1nc(-c2cnn(C)c2C(=O)NC2CCn3cc(-c4ccccc4)nc3C2)cs1` (stereo not drawn) [Example 2.12, 1-methyl-4-(2-methylthiazol-4-yl)-N-(2-phenyl-5,6,7,8-tetrahydroimidazo[1,2-a]pyridin-7-yl)-1H-pyrazole-5-carboxamide] had an IC50 below 5 nM.

`Cc1cnnc(-c2cnn(C)c2C(=O)Nc2cc3nc(-c4ccccc4)nn3cc2F)c1` [Example 3.46, N-(6-fluoro-2-phenyl-[1,2,4]triazolo[1,5-a]pyridin-7-yl)-1-methyl-4-(5-methylpyridazin-3-yl)-1H-pyrazole-5-carboxamide]: the half-inhibitory concentration (IC50) is below 5 nM.

`Cc1ncc(Cl)c(-c2cnn(C)c2C(=O)Nc2cc3nc(-c4ccccc4)nn3cc2F)n1` [Example 3.41, 4-(5-chloro-2-methylpyrimidin-4-yl)-N-(6-fluoro-2-phenyl-[1,2,4]triazolo[1,5-a]pyridin-7-yl)-1-methyl-1H-pyrazole-5-carboxamide] showed an IC50 below 5 nM.

Turning to `Cn1ncc(-c2nc(C(F)F)cs2)c1C(=O)Nc1cc2nc(-c3ccccc3)nn2cc1F` [Example 3.12, 4-(4-(difluoromethyl)thiazol-2-yl)-N-(6-fluoro-2-phenyl-[1,2,4]triazolo[1,5-a]pyridin-7-yl)-1-methyl-1H-pyrazole-5-carboxamide], the IC50 was below 5 nM.

`Cn1ncc(-c2nc(C(F)F)cs2)c1C(=O)NC1CCn2cc(-c3ccc(F)cc3)nc2C1` (stereo not drawn) [Example 2.28, 4-(4-(difluoromethyl)thiazol-2-yl)-N-(2-(4-fluorophenyl)-5,6,7,8-tetrahydroimidazo[1,2-a]pyridin-7-yl)-1-methyl-1H-pyrazole-5-carboxamide] yielded an IC50 below 5 nM.

On to `Cn1ncc(-c2nc(C(F)F)cs2)c1C(=O)Nc1ccn2cc(-c3ccccc3)nc2c1` [Example 1.3, 4-(4-(difluoromethyl)thiazol-2-yl)-1-methyl-N-(2-phenylimidazo[1,2-a]pyridin-7-yl)-1H-pyrazole-5-carboxamide], for which the half-maximal inhibitory concentration (IC50) is below 5 nM.

On to `COc1nccc(-c2cnn(C)c2C(=O)Nc2cc3nc(-c4ccccc4)nn3cc2F)n1` [Example 3.26, N-(6-fluoro-2-phenyl-[1,2,4]triazolo[1,5-a]pyridin-7-yl)-4-(2-methoxypyrimidin-4-yl)-1-methyl-1H-pyrazole-5-carboxamide], for which the IC50 is below 5 nM.

Take `Cc1cc(-c2cnn(C)c2C(=O)Nc2cc3nc(-c4ccccc4)nn3cc2F)ncn1` [Example 3.39, N-(6-fluoro-2-phenyl-[1,2,4]triazolo[1,5-a]pyridin-7-yl)-1-methyl-4-(6-methylpyrimidin-4-yl)-1H-pyrazole-5-carboxamide]: the concentration for half-maximal inhibition (IC50) is below 5 nM.

Compound `Cn1ncc(-c2nc(C(F)F)c(Cl)s2)c1C(=O)Nc1ccn2nc(N3CCCC3)nc2c1` [Example 4.26, 4-(5-chloro-4-(difluoromethyl)thiazol-2-yl)-1-methyl-N-(2-(pyrrolidin-1-yl)-[1,2,4]triazolo[1,5-a]pyridin-7-yl)-1H-pyrazole-5-carboxamide] came in with an IC50 below 5 nM.

`Cn1ncc(-c2nc(C(F)(F)F)cs2)c1C(=O)NC1CCn2cc(-c3ccc(F)cc3)nc2C1` (stereo not drawn) [Example 2.29, N-(2-(4-fluorophenyl)-5,6,7,8-tetrahydroimidazo[1,2-a]pyridin-7-yl)-1-methyl-4-(4-(trifluoromethyl)thiazol-2-yl)-1H-pyrazole-5-carboxamide] gave a concentration for half-maximal inhibition (IC50) below 5 nM.

“(R)-N-(6-fluoro-2-(2trifluoromethyl)pyrrolidin-1-yl)-[1,2,4]triazolo[1,5-a]pyridin-7-yl)-1-methyl-4-(6-methylpyridin-2-yl)-1H-pyrazole-5-carboxamide [Example 4.11]” registered an IC50 below 5 nM.

`COc1ccnc(-c2cnn(C)c2C(=O)Nc2cc3nc(-c4ccccc4)nn3cc2F)c1` [Example 3.52, N-(6-fluoro-2-phenyl-[1,2,4]triazolo[1,5-a]pyridin-7-yl)-4-(4-methoxypyridin-2-yl)-1-methyl-1H-pyrazole-5-carboxamide]: the IC50 is below 5 nM.

Turning to `COc1ccccc1-c1nc2n(n1)CCC(NC(=O)c1c(-c3nc(C(F)F)cs3)cnn1C)C2` (stereo not drawn) [Example 5.34, 4-(4-(difluoromethyl)thiazol-2-yl)-N-(2-(2-methoxyphenyl)-5,6,7,8-tetrahydro-[1,2,4]triazolo[1,5-a]pyridin-7-yl)-1-methyl-1H-pyrazole-5-carboxamide], the IC50 is below 5 nM.

For `Cc1ncc(C)c(-c2cnn(C)c2C(=O)Nc2cc3nc(-c4cccnc4)nn3cc2F)n1` [Example 3.49, 4-(2,5-dimethylpyrimidin-4-yl)-N-(6-fluoro-2-(pyridin-3-yl)-[1,2,4]triazolo[1,5-a]pyridin-7-yl)-1-methyl-1H-pyrazole-5-carboxamide], the IC50 was below 5 nM.

`Cc1cccc(-c2cnn(C)c2C(=O)Nc2ccn3nc(N4CCC[C@@H]4C)nc3c2)n1` [Example 4.7, (S)-1-methyl-4-(6-methylpyridin-2-yl)-N-(2-(2-methylpyrrolidin-1-yl)-[1,2,4]triazolo[1,5-a]pyridin-7-yl)-1H-pyrazole-5-carboxamide] came in with an IC50 below 5 nM.

In turn, `Cc1ccnc(-c2cnn(C)c2C(=O)NC2CCn3cc(-c4ccccc4)nc3C2)c1` (stereo not drawn) [Example 2.22, 1-methyl-4-(4-methylpyridin-2-yl)-N-(2-phenyl-5,6,7,8-tetrahydroimidazo[1,2-a]pyridin-7-yl)-1H-pyrazole-5-carboxamide] returned a half-maximal inhibitory concentration (IC50) below 5 nM.

The compound `Cc1ncnc(-c2cnn(C)c2C(=O)Nc2cc3nc(-c4ccccc4)nn3cc2F)c1F` [Example 3.38, N-(6-fluoro-2-phenyl-[1,2,4]triazolo[1,5-a]pyridin-7-yl)-4-(5-fluoro-6-methylpyrimidin-4-yl)-1-methyl-1H-pyrazole-5-carboxamide] came in with a concentration for half-maximal inhibition (IC50) below 5 nM.

`Cn1cnc(-c2cnn(C)c2C(=O)Nc2cc3nc(-c4ccccc4)nn3cc2F)c1` [Example 3.48, N-(6-fluoro-2-phenyl-[1,2,4]triazolo[1,5-a]pyridin-7-yl)-1-methyl-4-(1-methyl-1H-imidazol-4-yl)-1H-pyrazole-5-carboxamide]: the IC50 is below 5 nM.

For `Cc1cc(C)nc(-c2cnn(C)c2C(=O)Nc2cc3nc(-c4ccc(F)cc4)nn3cc2F)c1` [Example 3.54, 4-(4,6-dimethylpyridin-2-yl)-N-(6-fluoro-2-(4-fluorophenyl)-[1,2,4]triazolo[1,5-a]pyridin-7-yl)-1-methyl-1H-pyrazole-5-carboxamide], the IC50 is below 5 nM.
